# Calls of active or inactive are those of the source. The rule behind the calls is not given here.
# Assays:
# [1] = Cytotoxicity against HUVEC cells assessed as cell survival at <16 ug/ml incubated for 24 hrs by CCK-8 assay relative to control; assay type: toxicity, cell-based; details: human, dose < 16 µg/ml, read-out: Survival
# [2] = Hemolytic activity in rabbit RBC at 32 ug/ml incubated for 1 hr by absorbance based analysis; assay type: toxicity, cell-based, Oryctolagus cuniculus, Erythrocyte; details: rabbit red blood cells, at 32 µg/mL, read-out: Activity
# [3] = Cytotoxicity against HUVEC cells assessed as cell survival at 128 ug/ml incubated for 24 hrs by CCK-8 assay relative to control; assay type: toxicity, cell-based; details: human, at 128 µg/mL, read-out: Survival
# Saccharomyces cerevisiae [4] = assay: Resistance index, ratio of MIC for recombinant Saccharomyces cerevisiae Y525 overexpressing CaMdr1 to MIC for recombinant Saccharomyces cerevisiae Y2411 overexpressing ScErg11; assay type: functional
# Aspergillus fumigatus = assay: Antifungal activity against Aspergillus fumigatus 7544 assessed as inhibition of fungal growth incubated for 72 hrs by microbroth dilution method; assay type: functional
# [Candida] auris [5] = Antifungal activity against fluconazole-resistant Candida auris 891 assessed as inhibition of fungal growth incubated for 48 hrs by microbroth dilution method; assay type: functional; details: Candidozyma auris
# Candida albicans [6] = assay: Antifungal activity against fluconazole-resistant Candida albicans 901 assessed as inhibition of fungal growth incubated for 48 hrs by microbroth dilution method; assay type: functional
# Candida albicans [7] = assay: Antifungal activity against Candida albicans SC5314 assessed as inhibition of fungal growth at 0.5 ug/ml incubated for 48 hrs by spot assay; assay type: functional, organism-based; details: dose 0.5 µg/ml
# Candida tropicalis = assay: Antifungal activity against Candida tropicalis 8915 assessed as inhibition of fungal growth incubated for 48 hrs by microbroth dilution method; assay type: functional
# Cryptococcus neoformans [8] = assay: Antifungal activity against Cryptococcus neoformans 32,609 assessed as inhibition of fungal growth at 0.5 ug/ml incubated for 48 hrs by spot assay; assay type: functional, organism-based; details: dose 0.5 µg/ml
# Nakaseomyces glabratus [9] = assay: Antifungal activity against Candida glabrata 537 assessed as inhibition of fungal growth incubated for 48 hrs by microbroth dilution method; assay type: functional
# Candida albicans [10] = assay: Antifungal activity against Candida albicans SC5314 assessed as reduction in fungal growth and viability at 2 ug/ml incubated for 48 hrs by spot assay; assay type: functional, organism-based; details: dose 2.0 µg/ml
# Candida albicans [11] = assay: Antibiofilm activity against Candida albicans SC5314 preformed biofilms at 64 ug/ml incubated for 24 hrs by XTT reduction assay relative to control; assay type: functional; parameters: scale not given: the % may be the effect or the level left; details: dose 64 µg/ml
# Candida albicans [12] = assay: Antifungal activity against fluconazole-resistant Candida albicans 904 assessed as inhibition of fungal growth at 0.5 ug/ml incubated for 48 hrs by spot assay; assay type: functional, organism-based; details: dose 0.5 µg/ml
# Candida albicans [13] = assay: Inhibition of biofilm formation in Candida albicans SC5314 at 64 ug/ml incubated for 24 hrs by XTT reduction assay relative to control; assay type: functional
# Nakaseomyces glabratus [14] = assay: Antifungal activity against Candida glabrata 537 assessed as inhibition of fungal growth at 0.5 ug/ml incubated for 48 hrs by spot assay; assay type: functional, organism-based; details: dose 0.5 µg/ml
# Candida parapsilosis [15] = assay: Antifungal activity against Candida parapsilosis 22019 assessed as inhibition of fungal growth at 0.5 ug/ml incubated for 48 hrs by spot assay; assay type: functional, organism-based; details: dose 0.5 µg/ml
# Candida albicans [16] = assay: Antifungal activity against Candida albicans SC5314 infected in Galleria mellonella larvae assessed as protection against fungal infection at 2 mg/kg measured after 10 days post inoculation; assay type: functional, organism-based; details: time 10.0 day
# Saccharomyces cerevisiae [17] = assay: Antifungal activity against recombinant Saccharomyces cerevisiae Y2301 overexpressing ScErg11 Y140F assessed as inhibition of fungal growth incubated for 48 hrs by microbroth dilution method; assay type: functional
# Candida parapsilosis [18] = assay: Antifungal activity against Candida parapsilosis 22019 assessed as inhibition of fungal growth incubated for 48 hrs by microbroth dilution method; assay type: functional; details: Lodderomyces parapsilosis
# Saccharomyces cerevisiae [19] = assay: Antifungal activity against recombinant Saccharomyces cerevisiae Y570 overexpressing CaCdr1 assessed as inhibition of fungal growth incubated for 48 hrs by microbroth dilution method; assay type: functional
# [Candida] auris [20] = Antifungal activity against fluconazole-resistant Candida auris 918 assessed as inhibition of fungal growth incubated for 48 hrs by microbroth dilution method; assay type: functional; details: Candidozyma auris
# Saccharomyces cerevisiae [21] = assay: Antifungal activity against recombinant Saccharomyces cerevisiae Y2721 overexpressing CpErg11 CpCpr assessed as inhibition of fungal growth incubated for 48 hrs by microbroth dilution method; assay type: functional
# Candida albicans [22] = assay: Antifungal activity against Candida albicans 904 assessed as reduction in fungal growth and viability at 2 ug/ml incubated for 48 hrs by spot assay; assay type: functional, organism-based; details: dose 2.0 µg/ml
# Candida albicans [23] = assay: Antifungal activity against Candida albicans 10231 assessed as inhibition of fungal growth incubated for 48 hrs by microbroth dilution method; assay type: functional
# Candida albicans [24] = assay: Antifungal activity against Candida albicans assessed as reduction in hyphal length at 16 ug/ml; assay type: functional, organism-based; details: dose 16.0 µg/ml
# Candida albicans [25] = assay: Antifungal activity against Candida albicans SC5314 infected in Galleria mellonella larvae assessed as larval survival rate at 8 mg/kg measured after 10 days post inoculation relative to control; assay type: functional; details: SC5314, 240 h, time 10 day
# Saccharomyces cerevisiae [26] = assay: Antifungal activity against recombinant Saccharomyces cerevisiae Y2462 overexpressing ScErg11 ScNcp1 assessed as inhibition of fungal growth incubated for 48 hrs by microbroth dilution method; assay type: functional
# [27] = Selectivity index, ratio of IC50 for HUVEC cells to MIC for Candida albicans SC5314; assay type: toxicity; details: human, HUVEC cells versus Candida albicans SC5314; read-out: Selectivity Index
# Saccharomyces cerevisiae [28] = assay: Antifungal activity against recombinant Saccharomyces cerevisiae Y2374 overexpressing CgErg11 assessed as inhibition of fungal growth incubated for 48 hrs by microbroth dilution method; assay type: functional
# Saccharomyces cerevisiae [29] = assay: Antifungal activity against recombinant Saccharomyces cerevisiae Y2300 overexpressing ScErg11 assessed as inhibition of fungal growth incubated for 48 hrs by microbroth dilution method; assay type: functional
# Candida albicans [30] = assay: Antifungal activity against Candida albicans SC5314 assessed as inhibition of fungal growth at 4 ug/ml measured after 12 hrs by optical density based method; assay type: functional, organism-based; details: dose 4.0 µg/ml
# [31] = Selectivity index, ratio of IC50 for HUVEC cells to MIC for Candida glabrata 537; assay type: toxicity; details: human, HUVEC cells versus Candida glabrata 537; read-out: Selectivity Index
# Candida albicans [32] = assay: Antibiofilm activity against Candida albicans SC5314 preformed biofilms at 16 ug/ml incubated for 24 hrs by XTT reduction assay relative to control; assay type: functional; parameters: scale not given: the % may be the effect or the level left; details: dose 16 µg/ml
# Candida albicans [33] = assay: Antifungal activity against fluconazole-resistant Candida albicans 904 assessed as inhibition of fungal growth incubated for 48 hrs by microbroth dilution method; assay type: functional
# Cryptococcus neoformans [34] = assay: Antifungal activity against Cryptococcus neoformans 32,609 assessed as inhibition of fungal growth incubated for 72 hrs by microbroth dilution method; assay type: functional
# Saccharomyces cerevisiae [35] = assay: Antifungal activity against recombinant Saccharomyces cerevisiae Y2459 overexpressing CaErg11 CaCpr assessed as inhibition of fungal growth incubated for 48 hrs by microbroth dilution method; assay type: functional
# Saccharomyces cerevisiae [36] = assay: Antifungal activity against recombinant Saccharomyces cerevisiae Y2716 overexpressing CpErg11 Y132F CpCpr assessed as inhibition of fungal growth incubated for 48 hrs by microbroth dilution method; assay type: functional
# Saccharomyces cerevisiae [37] = assay: Antifungal activity against recombinant Saccharomyces cerevisiae Y2513 overexpressing ScErg11 Y140H assessed as inhibition of fungal growth incubated for 48 hrs by microbroth dilution method; assay type: functional
# Pichia kudriavzevii = assay: Antifungal activity against Candida krusei 4996 assessed as inhibition of fungal growth incubated for 48 hrs by microbroth dilution method; assay type: functional
# [Candida] auris [38] = Antifungal activity against fluconazole-resistant Candida auris 919 assessed as inhibition of fungal growth incubated for 48 hrs by microbroth dilution method; assay type: functional; details: Candidozyma auris
# [Candida] auris [39] = Antifungal activity against Candida auris 891 assessed as inhibition of fungal growth at 0.5 ug/ml incubated for 48 hrs by spot assay; assay type: functional, organism-based; details: Candidozyma auris, dose 0.5 µg/ml
# Candida albicans [40] = assay: Antifungal activity against Candida albicans SC5314 infected in Galleria mellonella larvae assessed as median survival time at 8 mg/kg measured after 10 days post inoculation; assay type: functional; details: time 10 day
# Saccharomyces cerevisiae [41] = assay: Antifungal activity against recombinant Saccharomyces cerevisiae Y525 overexpressing CaMdr1 assessed as inhibition of fungal growth incubated for 48 hrs by microbroth dilution method; assay type: functional
# Candida albicans [42] = assay: Antifungal activity against Candida albicans 10231 assessed as inhibition of fungal growth at 0.5 ug/ml incubated for 48 hrs by spot assay; assay type: functional, organism-based; details: dose 0.5 µg/ml
# Candida albicans [43] = assay: Antifungal activity against Candida albicans assessed as increase in pseudohyphae at 16 ug/ml; assay type: functional, organism-based; details: dose 16.0 µg/ml
# Candida albicans [44] = assay: Antibiofilm activity against Candida albicans SC5314 preformed biofilms at 4 ug/ml incubated for 24 hrs by XTT reduction assay relative to control; assay type: functional; parameters: scale not given: the % may be the effect or the level left; details: dose 4 µg/ml
# Candida albicans [45] = assay: Antifungal activity against Candida albicans SC5314 assessed as inhibition of fungal growth incubated for 48 hrs by microbroth dilution method; assay type: functional
# [46] = biological target: Lanosterol 14-alpha demethylase (Candida albicans (strain SC5314 / ATCC MYA-2876) (Yeast), UniProt P10613); assay: Inhibition of Lanosterol 14-alpha demethylase in Candida albicans SC5314 assessed as reduction in ergosterol level at 8 ug/ml incubated for 8 hrs by GC-MS analysis relative to control; details: at 8 µg/mL
# Chain of Lanosterol 14-alpha demethylase (P10613 whole entry): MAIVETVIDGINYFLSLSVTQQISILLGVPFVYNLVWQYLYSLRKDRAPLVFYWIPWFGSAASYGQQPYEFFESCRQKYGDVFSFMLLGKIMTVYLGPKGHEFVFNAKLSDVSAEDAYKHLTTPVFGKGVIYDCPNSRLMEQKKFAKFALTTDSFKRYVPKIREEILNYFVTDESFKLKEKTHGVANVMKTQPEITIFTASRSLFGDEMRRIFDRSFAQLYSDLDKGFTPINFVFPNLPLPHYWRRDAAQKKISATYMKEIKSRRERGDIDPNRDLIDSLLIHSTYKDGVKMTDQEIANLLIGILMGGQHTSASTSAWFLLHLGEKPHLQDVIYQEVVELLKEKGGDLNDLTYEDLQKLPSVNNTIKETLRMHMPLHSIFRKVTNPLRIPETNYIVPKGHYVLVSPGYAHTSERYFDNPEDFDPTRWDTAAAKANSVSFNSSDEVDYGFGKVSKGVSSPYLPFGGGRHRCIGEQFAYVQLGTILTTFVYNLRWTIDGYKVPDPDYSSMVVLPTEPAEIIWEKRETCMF
# Saccharomyces cerevisiae [47] = assay: Antifungal activity against recombinant Saccharomyces cerevisiae Y2411 overexpressing ScErg11 assessed as inhibition of fungal growth incubated for 48 hrs by microbroth dilution method; assay type: functional
# Candida albicans [48] = assay: Antifungal activity against Candida albicans SC5314 infected in Galleria mellonella larvae assessed as delay in time of larval death at 8 mg/kg measured after 10 days post inoculation; assay type: functional, organism-based; details: time 10.0 day
smiles,measurement,setting,value
C[C@@H]1[C@H](O)[C@@H](C)/C=C/C=C/C=C/C=C/C=C/C=C/C=C/[C@H](O[C@@H]2O[C@H](C)[C@@H](O)[C@H](N)[C@@H]2O)C[C@@H]2O[C@](O)(C[C@@H](O)C[C@@H](O)[C@H](O)CC[C@@H](O)C[C@@H](O)CC(=O)O[C@H]1C)C[C@H](O)[C@H]2C(=O)O [AMPHOTERICIN B],viability at 24 h,[1],50%
same,"hemolysis at 1 h, 32 ug/ml",[2],> 50%
same,"viability at 24 h, 128 ug/ml",[3],26.1%
OC(Cn1cncn1)(Cn1cncn1)c1ccc(F)cc1F [FLUCONAZOLE],Ratio,Saccharomyces cerevisiae [4],32
same,MIC,Aspergillus fumigatus,> 64 µg/mL
same,MIC,[Candida] auris [5],> 256 µg/mL
same,MIC,Candida albicans [6],> 256 µg/mL
same,Activity,Candida albicans [7],inactive
same,MIC,Candida tropicalis,> 64 µg/mL
same,Activity,Cryptococcus neoformans [8],inactive
same,MIC,Nakaseomyces glabratus [9],1 µg/mL
same,Activity,Candida albicans [10],Active
same,Activity,Candida albicans [11],33.39%
same,Activity,Candida albicans [12],inactive
same,inhibition at 64 µg/mL,Candida albicans [13],26.1%
same,Activity,Nakaseomyces glabratus [14],inactive
same,Activity,Candida parapsilosis [15],inactive
same,Activity,Candida albicans [16],Active
same,MIC,Saccharomyces cerevisiae [17],8 µg/mL
same,MIC,Candida parapsilosis [18],4 µg/mL
same,MIC,Saccharomyces cerevisiae [19],> 64 µg/mL
same,MIC,[Candida] auris [20],> 256 µg/mL
same,MIC,Saccharomyces cerevisiae [21],4 µg/mL
same,Activity,Candida albicans [22],Active
same,MIC,Candida albicans [23],> 64 µg/mL
same,Activity,Candida albicans [24],Active
same,survival at 8 mg/kg,Candida albicans [25],46.7%
same,MIC,Saccharomyces cerevisiae [26],8 µg/mL
same,selectivity ratio,[27],100
same,MIC,Saccharomyces cerevisiae [28],4 µg/mL
same,MIC,Saccharomyces cerevisiae [29],4 µg/mL
same,Activity,Candida albicans [30],Active
same,selectivity ratio,[31],50
same,Activity,Candida albicans [32],34.47%
same,MIC,Candida albicans [33],> 256 µg/mL
same,MIC,Cryptococcus neoformans [34],2 µg/mL
same,MIC,Saccharomyces cerevisiae [35],2 µg/mL
same,MIC,Saccharomyces cerevisiae [36],32 µg/mL
same,"viability at 24 h, 128 ug/ml",[3],43.7%
same,MIC,Saccharomyces cerevisiae [37],8 µg/mL
same,MIC,Pichia kudriavzevii,64 µg/mL
same,MIC,[Candida] auris [38],> 256 µg/mL
same,Activity,[Candida] auris [39],inactive
same,MST,Candida albicans [40],10 days
same,MIC,Saccharomyces cerevisiae [41],32 µg/mL
same,Activity,Candida albicans [42],inactive
same,Activity,Candida albicans [43],Active
same,Activity,Candida albicans [44],31.38%
same,MIC,Candida albicans [45],0.5 µg/mL
same,inhibition (INH),[46],~ 100%
same,MIC,Saccharomyces cerevisiae [47],1 µg/mL
same,Activity,Candida albicans [48],Active

# Reference: ChEMBL document CHEMBL5620353, “Novel antifungal triazoles with alkynyl-methoxyl side chains: Design, synthesis, and biological activity evaluation” (Eur J Med Chem, 2023)
